Measurements published in patent US12661345B2, “Compositions for the treatment of hypertension” (The George Institute for Global Health, priority 2017, dated 2026).

Legend:
[1] = tested on: participants with migraine; assay: Office blood pressure in 12-week double blind randomized 3×3 factorial trial; type: in vivo, human
Method: (§1) There was a 4 week screening period and another 4-week post study drug observational period.
There was a 4-week screening period and another 4-week post study drug observational period.
(§2) Group 2 received the low-dose BP lowering combination and simvastatin (i.e., telmisartan 20 mg+amlodipine 2.5 mg+simvastatin). Group 3 received the low-dose BP lowering combination and placebo (i.e., telmisartan 20 mg+amlodipine 2.5 mg+placebo). […] Group 9 received double placebo.
Office BP was measured following the recommendations of the Australian National Heart Foundation. Participants were rested in the seated position for 5 minutes, an appropriate cuff size was selected and 3 measurements of BP were recorded using an Omron HEM907 monitor or equivalent validated automated digital BP monitor. Principles of automated office BP measurements were applied whereby the patient was left alone during BP recording.
(§3) All analyses of study outcomes were conducted according to the principle of intention-to-treat. The analyses of continuous outcomes such SBP and LDL-cholesterol at 12 weeks was performed using ANCOVA including the treatment arm and baseline values as a covariate. Additional analyses included interim measurements in a longitudinal model including treatment arm, visit, and treatment by visit interaction as well as the baseline measurement. Within-patient correlations were modelled using generalized estimating equations. A similar approach was applied to binary endpoints with log-binomial regression used in place of linear regression. There were also pre-defined subgroup analyses, baseline BP, baseline LDL, gender and age.

[2] = tested on: participants with migraine; assay: Subject status / participant withdrawals by visit in the 3×3 factorial trial
[3] = tested on: LDL; assay: LDL laboratory test in the 3×3 factorial trial; type: in vivo, human; details: Week 12 v/s Baseline
Method: as §1, §2
Change in DBP and SBP • 2. Change in LDL Secondary Outcomes: • 1. Tolerability: • a. […] Difference between groups in participant withdrawals from treatment • 2. Safety: Percentage with any severe adverse event (SAE) • 3. Medication adherence: self-reported measures, pill counts BP Measurement:
Potassium (K+), sodium (Na+), serum creatinine and LDL were measured at screening and at the 12-week end of treatment follow-up visit.
as §3

[4] = Week 12, BP arm versus placebo, interval in brackets
[5] = Week 16 (after 4-week post study drug period)
[6] = Week 16, BP arm versus placebo, interval in brackets
[7] = overall line, BP arm versus placebo, interval in brackets, footnote # not given

For `CC(C)NCC(O)COc1cccc2ccccc12` (centres unmarked) [Propranolol, propranolol], the “Diastolic Blood Pressure, Change from Baseline, min” value ([1]; Week 12) was −22, the “Systolic Blood Pressure, Change from Baseline, Mean (SD)” value ([1]; Week 12) was 10 −10.9 (10.07) and the “Systolic Blood Pressure, Change from Baseline, Q1” value ([1]; Week 12) was −17.0. For the same compound, the “Systolic Blood Pressure, Change from Baseline, Q2” value ([1]; Week 12) was −12.8, the “Systolic Blood Pressure, Change from Baseline, Q3” value ([1]; Week 12) was −4.0 and the “Systolic Blood Pressure, Change from Baseline, max” value ([1]; Week 12) was 5. For the same compound, the “Systolic Blood Pressure, Change from Baseline, min” value ([1]; Week 12) was −30, the “Diastolic Blood Pressure Mean (SD)” value ([1]; Week 12 (end of treatment)) was 10 74.6 (15.07) mmHg and the “Diastolic Blood Pressure Q1” value ([1]; Week 12 (end of treatment)) was 60.7 mmHg. For the same compound, the “Diastolic Blood Pressure Q2” value ([1]; Week 12 (end of treatment)) was 70.0 mmHg, the “Diastolic Blood Pressure Q3” value ([1]; Week 12 (end of treatment)) was 85.7 mmHg and the “Diastolic Blood Pressure max” value ([1]; Week 12 (end of treatment)) was 97 mmHg. The “Diastolic Blood Pressure min” value ([1]; Week 12 (end of treatment)) was 54 mmHg, the “Systolic Blood Pressure Mean (SD)” value ([1]; Week 12 (end of treatment)) was 10 119.5 (17.83) mmHg and the “Systolic Blood Pressure Q2” value ([1]; Week 12 (end of treatment)) was 117.5 mmHg. For the same compound, the “Systolic Blood Pressure Q3” value ([1]; Week 12 (end of treatment)) was 135.3 mmHg, the “Systolic Blood Pressure max” value ([1]; Week 12 (end of treatment)) was 145 mmHg and the “Systolic Blood Pressure min” value ([1]; Week 12 (end of treatment)) was 88 mmHg. The “Diastolic Blood Pressure Mean difference” value [1, 4] was −3.50 (−14.77, 7.77) mmHg, the “Systolic Blood Pressure Mean difference” value [1, 4] was −1.77 (−14.87, 11.34) mmHg and the “Diastolic Blood Pressure, Change from Baseline, Mean difference” value ([1]; Week 12, interval in brackets) was −7.50 (−13.65, −1.35). For the same compound, the “Systolic Blood Pressure, Change from Baseline, Mean difference” value ([1]; Week 12, interval in brackets) was −8.40 (−16.80, −0.00), the “Change in DBP from baseline to 12 weeks Mean (SD)” value ([1]; Week 12 v/s Baseline) was 10 −10.5 (6.44) mmHg and the “Change in DBP from baseline to 12 weeks Q1” value ([1]; Week 12 v/s Baseline) was −16.7 mmHg. For the same compound, the “Change in DBP from baseline to 12 weeks Q2” value ([1]; Week 12 v/s Baseline) was −9.3 mmHg, the “Change in DBP from baseline to 12 weeks Q3” value ([1]; Week 12 v/s Baseline) was −4.3 mmHg and the “Change in DBP from baseline to 12 weeks max” value ([1]; Week 12 v/s Baseline) was −3 mmHg. For the same compound, the “Change in DBP from baseline to 12 weeks min” value ([1]; Week 12 v/s Baseline) was −22 mmHg, the “Change in SBP from baseline to 12 weeks Mean (SD)” value ([1]; Week 12 v/s Baseline) was 10 −10.9 (10.07) mmHg and the “Change in SBP from baseline to 12 weeks Q1” value ([1]; Week 12 v/s Baseline) was −17.0 mmHg. The “Change in SBP from baseline to 12 weeks Q2” value ([1]; Week 12 v/s Baseline) was −12.8 mmHg, the “Change in SBP from baseline to 12 weeks Q3” value ([1]; Week 12 v/s Baseline) was −4.0 mmHg and the “Change in SBP from baseline to 12 weeks max” value ([1]; Week 12 v/s Baseline) was 5 mmHg. For the same compound, the “Change in SBP from baseline to 12 weeks min” value ([1]; Week 12 v/s Baseline) was −30 mmHg, the “Diastolic Blood Pressure, Change from Baseline, Mean (SD)” value ([1]; Week 16) was 9 −3.9 (4.82) and the “Diastolic Blood Pressure, Change from Baseline, Q1” value ([1]; Week 16) was −7.7. The “Diastolic Blood Pressure, Change from Baseline, Q2” value ([1]; Week 16) was −2.7, the “Diastolic Blood Pressure, Change from Baseline, Q3” value ([1]; Week 16) was −0.7 and the “Diastolic Blood Pressure, Change from Baseline, max” value ([1]; Week 16) was 4. For the same compound, the “Diastolic Blood Pressure, Change from Baseline, min” value ([1]; Week 16) was −11, the “Systolic Blood Pressure, Change from Baseline, Mean (SD)” value ([1]; Week 16) was 9 −2.3 (5.95) and the “Systolic Blood Pressure, Change from Baseline, Q1” value ([1]; Week 16) was −6.3. The “Systolic Blood Pressure, Change from Baseline, Q2” value ([1]; Week 16) was −3.3, the “Systolic Blood Pressure, Change from Baseline, Q3” value ([1]; Week 16) was 2.3 and the “Systolic Blood Pressure, Change from Baseline, max” value ([1]; Week 16) was 6. The “Systolic Blood Pressure, Change from Baseline, min” value ([1]; Week 16) was −11, the “Diastolic Blood Pressure Mean (SD)” value [1, 5] was 9 82.0 (11.14) mmHg and the “Diastolic Blood Pressure Q1” value [1, 5] was 73.3 mmHg. The “Diastolic Blood Pressure Q2” value [1, 5] was 82.3 mmHg, the “Diastolic Blood Pressure Q3” value [1, 5] was 87.3 mmHg and the “Diastolic Blood Pressure min” value [1, 5] was 70 mmHg. For the same compound, the “Systolic Blood Pressure Mean (SD)” value [1, 5] was 9 129.6 (15.12) mmHg, the “Systolic Blood Pressure Q1” value [1, 5] was 119.7 mmHg and the “Systolic Blood Pressure Q2” value [1, 5] was 129.3 mmHg. The “Systolic Blood Pressure Q3” value [1, 5] was 136.7 mmHg, the “Systolic Blood Pressure max” value [1, 5] was 159 mmHg and the “Diastolic Blood Pressure Mean difference” value [1, 6] was 0.97 (−7.91, 9.85) mmHg. The “Systolic Blood Pressure Mean difference” value [1, 6] was 8.19 (−2.91, 19.28) mmHg, the “Diastolic Blood Pressure, Change from Baseline, Mean difference” value ([1]; Week 16, interval in brackets) was −3.93 (−9.96, 2.11) and the “Systolic Blood Pressure, Change from Baseline, Mean difference” value ([1]; Week 16, interval in brackets) was 0.10 (−6.97, 7.17). For the same compound, the “Diastolic Blood Pressure # Mean difference” value [1, 7] was −3.57 (−11.29, 4.16) mmHg, the “Systolic Blood Pressure # Mean difference” value [1, 7] was −1.68 (−12.28, 8.92) mmHg and the “Discontinuing: Deceased (percent)” value ([2]; Week 4) was “(0.0%)”. The “Discontinuing: Deceased (percent)” value ([2]; Week 8) was “(0.0%)”, the “Discontinuing: Deceased (percent)” value ([2]; Week 12) was “(0.0%)” and the “Change in LDL from baseline to 12 weeks Mean (SD)” value [3] was 10 −0.9 (1.03) mmol/l. The “Change in LDL from baseline to 12 weeks Q1” value [3] was -1.3 mmol/L, the “Change in LDL from baseline to 12 weeks Q2” value [3] was -0.7 mmol/L and the “Change in LDL from baseline to 12 weeks Q3” value [3] was -0.2 mmol/L. The “Change in LDL from baseline to 12 weeks max” value [3] was 0 mmol/L and the “Change in LDL from baseline to 12 weeks min” value [3] was -3 mmol/L.
